# Patent US6660468B1, “Vitro and in vivo models for screening compounds to prevent glucocorticoid-induced bone destruction” (Board of Trustees of the University of Arkansas, priority 1998, dated 2003)
# Experiments:
# Male Swiss Webster mice = experiment: Serum and urine biochemical measurements (osteocalcin, deoxypyridinoline); assay type: in vivo, mouse; conditions: 27 days; for Osteocalcin: serum; for Deoxypyridinoline: urine
# Method: (§1) Animals at peak bone mass were used to avoid obscuring the negative impact of glucocorticoid excess on bone mineral density by the confounding effects of increased linear and radial growth. Before the experiment began, bone mineral density measurements were repeated to allocate the animals into groups (n=4-5) with equivalent spinal density values. […] These doses were administered for 27 days by subcutaneous implantation of slow-release pellets (Innovative Research of America, Sarasota, Fla.). Bone mineral density measurements were obtained at the beginning of the experiment and 27 days post-implantation. For dynamic histomorphometric measurements, tetracycline HCl (30 mg/kg body weight) was given intraperitoneally 17 and 23 days post-implantation. After 27 days, the mice were sacrificed, serum and urine specimens were taken, bone marrow aspirates were obtained from the right femur for ex vivo marrow cell cultures and the left femur and lumbar vertebrae were prepared for histomorphometric analysis. Livers were examined for fatty infiltration as a sign of prednisolone toxicity. The weight of the seminal vesicles (mg/100 g body weight) was used as an index of the androgen status of the animals (12). To help interpret these measurements, a separate group of animals was orchidectomized (n=5).
# Serum osteocalcin was measured by radioimmunoassay using a goat anti-murine osteocalcin and murine osteocalcin as tracer and standard (Biomedical Technologies, Stoughton, Mass.). Urinary free deoxypyridinoline excretion was determined by a microtiter competitive enzyme immunoassay (Pyrilinks-D, Metra Biosystems, Mountain View, Calif.) and was expressed as a ratio to the urinary creatinine.
# [1] = test system: murine vertebral cancellous bone; experiment: Vertebral cancellous bone histomorphometry after 27 days
# Method: as §1
# The distal femora and lumbar vertebrae were fixed in 4° C. Millonig's phosphate-buffered 10% formalin, pH 7.4, embedded undecalcified in methyl methacrylate and stained (7,9,13). The histomorphometric examination was done with a computer and digitizer tablet (OsteoMetrics Inc. Version 3.00, Atlanta, Ga.) interfaced to a Zeiss Axioscope (Carl Zeiss, Inc., Thornwood, N.Y.) with a drawing tube attachment. All cancellous measurements were two-dimensional, confined to the secondary spongiosa and made at ×400 magnification (numerical aperture 0.75). The terminology and units used are those recommended by the Histomorphometry Nomenclature Committee of the American Society for Bone and Mineral Research (14). The trabecular width and osteoid width were measured directly. Trabecular spacing and number were calculated (15). Only TRAPase-positive cells were included in the osteoclast perimeter. The rate of bone formation (μm^2/μm/d) and turnover (%/d) were calculated (7).
# [2] = test system: murine osteoblasts and osteocytes; experiment: Apoptosis (TUNEL) in undecalcified murine bone sections; assay type: in vivo, mouse
# Method: Sections were mounted on silane-coated glass slides (Scientific Device Lab, Inc., Des Plains, Ill.), deplasticized and incubated in 10 mM citrate buffer, pH 7.6, in a microwave oven at 98° C. for 5 minutes. Slides were then incubated with 0.5% pepsin for 30 minutes at 37° C. Apoptotic cells were detected by the TUNEL reaction (transferase-mediated biotin-dUTP nick end-labeling) using Klenow terminal deoxynucleotidyl transferase (Oncor, Gaithersburg, Md.) in sections counterstained with 1% methyl green. The TUNEL reaction was noted within cell nuclei and the cells whose nuclei were clearly brown from the peroxidase-labeled anti-digoxigenin antibody instead of the blue-green from the methyl green were interpreted as positive. Plastic-embedded sections of weaned rat mammary tissue were used as a positive control. Negative controls were made by omitting the transferase. Morphological changes characteristic of apoptosis were examined carefully to minimize ambiguity regarding the interpretation of results. With these precautions, TUNEL has been unequivocally associated with apoptosis (19). […] Apoptosis was also assessed in transiliac bone biopsy specimens taken from two patients with glucocorticoid-induced osteoporosis (receiving 15 to 25 mg/d of prednisone for 3 to 6 yr) and from 12 age-, sex- and race-matched controls (13). Two longitudinal sections were examined from each patient and control subject. Osteoblasts were identified as cuboidal cells lining the osteoid-covered trabecular perimeter (7,9,13). Osteocytes were identified inside lacunae in mineralized bone.
# [3] = higher dose (2.1 mg/kg/d), 27 days, vs placebo
structure (smiles),measurement,setting,value
C[C@]12C=CC(=O)C=C1CC[C@@H]1[C@@H]2[C@@H](O)C[C@@]2(C)[C@H]1CC[C@]2(O)C(=O)CO [prednisolone],Decrease of serum osteocalcin compared to placebo,Male Swiss Webster mice,more than 50%
same,Osteocalcin,Male Swiss Webster mice; 0.7 mg/kg/d,63.0 ± 27.7 µg/L
same,Osteocalcin,Male Swiss Webster mice; 2.1 mg/kg/d,46.4 ± 13.8 µg/L
same,Deoxypyridinoline,Male Swiss Webster mice; 0.7 mg/kg/d,63.6 ± 14.7 μM/mM creatinine
same,Deoxypyridinoline,Male Swiss Webster mice; 2.1 mg/kg/d,81.5 ± 11.3 μM/mM creatinine
same,Bone area/Tissue area,"[1]; 0.7 mg/kg/d, 27 days",6.9 ± 2.1%
same,Bone area/Tissue area,"[1]; 2.1 mg/kg/d, 27 days",6.3 ± 1.7 %
same,Decrease in mineralizing perimeter,[1]; 27 days,26%
same,Decline in mineral appositional rate,"[1]; higher dose (2.1 mg/kg/d), 27 days",40%
same,Decline in trabecular width,[1]; [3],23%
same,Decline in vertebral cancellous bone area,[1]; [3],40%
same,Decrease in osteoid area,"[1]; higher dose, 27 days",29%
same,Decrease in osteoid perimeter,"[1]; higher dose, 27 days",34%
same,Decrease in osteoid width,"[1]; higher dose, 27 days",27%
same,Decrease in rate of bone formation,"[1]; higher dose, 27 days",53%
same,Decline in mineral appositional rate,"[1]; lower dose (0.7 mg/kg/d), 27 days",22%
same,Active lifespan of an osteoblast,"[1]; mouse, in vivo",about 260 hours
same,Increase in empty erosion cavities or reversal perimeter,"[1]; mouse, in vivo",3 fold
same,Wall width,"[1]; mouse, in vivo",about 8 μm
same,Apoptotic hypertrophic chondrocytes and bone marrow cells,"[2]; either dose, mice",increase
same,Increase in osteoblast apoptosis in vertebrae,"[2]; higher dose, 27 days, vs controls",3 fold
same,Apoptotic osteocytes in femoral metaphyseal cortical bone,"[2]; higher dose, 27 days, 131 osteocytes, none in controls",28%
same,Osteoblast apoptosis in vertebral cancellous bone,"[2]; higher dose, 27 days, controls 0.66%±0.07",2.03%±0.34
same,"fAp, fraction of osteoblasts that undergoes apoptosis","[2]; higher dose, estimate with tAp doubled, placebo 0.6",0.9
same,Prevalence of osteoblast apoptosis (fraction),"[2]; higher dose, placebo 0.0066",0.0203
same,Osteoclast apoptosis,"[2]; mice, 27 days",not observed
